ChEMBL document CHEMBL1201862, “PubChem BioAssay data set” (2004)
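Protocol summary: plate cells (96-well), add compound at 5 concentrations, incubate 48 h, interpolate endpoints linearly. At the GI50, growth is halved.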 The source made the active and inactive calls. Cut-off read from the data, not from the text of the source: active = GI50 up to about 1.1 µM and inactive = higher.

Key:
Assay in all cases: NCI-60 cell line screen, 48 h
[1] = tested on: SF-295
[2] = tested on: SF-539
[3] = tested on: SR
[4] = tested on: HOP-62
[5] = tested on: HT-29
[6] = tested on: OVCAR-8
[7] = tested on: A549
[8] = tested on: CCRF-CEM
[9] = tested on: HL-60
[10] = tested on: HOP-92
[11] = tested on: U-251
[12] = tested on: UACC-62
[13] = tested on: UACC-257
[14] = tested on: UO-31
[15] = tested on: OVCAR-3
[16] = tested on: OVCAR-4
[17] = tested on: MOLT-4
[18] = tested on: 786-0
[19] = tested on: HCT-116
[20] = tested on: TK-10

Measured: GI50

CC(C)c1cccc(=O)c(O)c1 [HINOKITIOL]
inactive: [1] 6.52 µM | [2] 5.31 µM | [3] 2.84 µM | [4] 10.9 µM | [5] 4.27 µM | [6] 4.45 µM | [7] 9.35 µM | [8] 2.79 µM | [9] 2.49 µM | [10] 15.9 µM | [11] 9.12 µM | [12] 5.79 µM | [13] 4.1 µM | [14] 10.5 µM | [15] 4.05 µM | [16] 7.23 µM | [17] 3.18 µM | [18] 5.22 µM | [19] 3.91 µM | [20] 58.1 µM
